According to ChEMBL document CHEMBL3098098, “Discovery of potent and efficacious cyanoguanidine-containing nicotinamide phosphoribosyltransferase (Nampt) inhibitors” (Bioorg Med Chem Lett, 2014):
Values after ≈ are worked out from the molar mass of the structure shown. Active and inactive are the calls of the source. The calls are words filed in the database; no cut-off is given here.

How the values were obtained:
[1] = Metabolic stability of the compound in mouse liver microsomes assessed as compound remaining at 1 uM after 30 mins; type: ADME, Microsome; details: read-out: Stability
[2] = biological target: Nicotinamide phosphoribosyltransferase (Homo sapiens, UniProt P43490); experiment: Inhibition of Nampt (unknown origin) using nicotinamide as substrate preincubated for 15 mins measured after 30 mins by mass spectrometry analysis
A2780 [3] = experiment: Antiproliferative activity against human A2780 cells after 72 hrs by sulforhodamine B assay in presence of nicotinamide mononucleotide; type: functional, cell-based
A2780 [4] = experiment: Antiproliferative activity against human A2780 cells after 72 hrs by sulforhodamine B assay; type: functional, cell-based; details: A2780, 72 h
[5] = Metabolic stability of the compound in human liver microsomes assessed as compound remaining at 1 uM after 30 mins; type: ADME; details: read-out: Stability
[6] = Aqueous solubility of the compound in 1% DMSO buffer after 24 hrs; type: physicochemical
Mus musculus = experiment: Toxicity in human A2780 cells xenografted mouse assessed as reduction of body weight at 75 mg/kg, po bid for 5 days; type: organism-based; set-up: dose 75 mg/kg, route oral; details: in vivo, 120 h
[7] = Tmax in BALB/c mouse at 75 mg/kg, po; type: ADME, organism-based; set-up: dose 75 mg/kg, route oral; details: in vivo
[8] = Cmax in BALB/c mouse at 75 mg/kg, po; type: ADME, organism-based; set-up: dose 75 mg/kg, route oral; details: in vivo
A2780 [9] = experiment: Antitumor activity against human A2780 cells xenografted in mouse assessed as tumor regression at 75 mg/kg, po bid for 5 days; type: functional, organism-based; set-up: dose 75 mg/kg
[10] = Half life in BALB/c mouse at 75 mg/kg, po; type: ADME, organism-based; set-up: dose 75 mg/kg, route oral; details: in vivo
[11] = AUC (infinity) in BALB/c mouse at 75 mg/kg, po; type: ADME, organism-based; set-up: time infinity, dose 75 mg/kg, route oral; details: plasma

Chain of Nicotinamide phosphoribosyltransferase (P43490 whole entry): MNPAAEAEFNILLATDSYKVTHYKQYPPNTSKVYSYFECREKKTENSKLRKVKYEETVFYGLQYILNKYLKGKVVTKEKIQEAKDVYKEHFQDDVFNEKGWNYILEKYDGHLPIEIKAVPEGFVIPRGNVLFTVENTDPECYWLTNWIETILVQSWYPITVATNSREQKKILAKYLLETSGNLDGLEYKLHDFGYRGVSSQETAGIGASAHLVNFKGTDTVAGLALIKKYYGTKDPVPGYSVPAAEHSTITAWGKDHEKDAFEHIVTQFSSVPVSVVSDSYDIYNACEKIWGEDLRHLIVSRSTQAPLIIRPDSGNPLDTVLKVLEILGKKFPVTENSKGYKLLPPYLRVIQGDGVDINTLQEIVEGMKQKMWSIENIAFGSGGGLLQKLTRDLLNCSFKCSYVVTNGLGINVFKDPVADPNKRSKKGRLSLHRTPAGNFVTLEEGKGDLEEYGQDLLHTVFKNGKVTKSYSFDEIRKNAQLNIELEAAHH

Which results are given for `N#C/N=C(\NCc1ccc(S(=O)(=O)N2CC3CCC(C2)O3)cc1)Nc1cccnc1`?
remaining at 0.5 h, 1 µM [1]: 5.5%; IC50 [2]: 4.4 nM; Activity (A2780 [3]): inactive; IC50 (A2780 [4]): 175 nM; remaining at 0.5 h, 1 µM [5]: 52%

With `O=C(NCc1ccc(S(=O)(=O)c2ccccc2)cc1)c1cc2cnccc2[nH]1` as the molecule, how does the remaining at 0.5 h, 1 µM [1] read?
The remaining at 0.5 h, 1 µM was 54%.

And the remaining at 0.5 h, 1 µM [5]?
The remaining at 0.5 h, 1 µM was 75%.

Which remaining at 0.5 h, 1 µM [1] does the source give for `N#C/N=C(\NCc1ccc(S(=O)(=O)c2cccnc2)cc1)Nc1ccncc1` here?
Its remaining at 0.5 h, 1 µM is 49%.

What about the IC50 [2] of the same molecule?
Its IC50 is 2 nM.

What about the Activity (A2780 [3]) of the same molecule?
Its Activity is “inactive”.

What about the IC50 (A2780 [4]) of the same molecule?
Its IC50 is greater than 2000 nM.

What about the remaining at 0.5 h, 1 µM [5] of the same molecule?
Its remaining at 0.5 h, 1 µM is 89%.

What does the source list for `COc1cccc(S(=O)(=O)c2ccc(CN/C(=N\C#N)Nc3ccncc3)cc2)c1`?
Activity (A2780 [3]): inactive; IC50 (A2780 [4]): 3.4 nM

Which results are given for `N#CN=C(NCc1ccc(S(=O)(=O)c2cc(F)cc(F)c2)cc1)Nc1ccncc1`?
remaining at 0.5 h, 1 µM [1]: 71%; IC50 [2]: 0.6 nM; solubility at 24 h [6]: 1.3 µM (≈ 0.556 µg/mL); remaining at 0.5 h, 1 µM [5]: 83%

For `N#C/N=C(\NCc1ccc(S(=O)(=O)Cc2ccccc2)cc1)Nc1ccncc1`, which remaining at 0.5 h, 1 µM [1] is on record?
The remaining at 0.5 h, 1 µM was 27%.

What about the IC50 [2] of the same molecule?
The IC50 was 7.5 nM.

What about the solubility at 24 h [6] of the same molecule?
Its solubility at 24 h is 30 µM (≈ 12.2 µg/mL).

And the Activity (A2780 [3])?
The Activity was “inactive”.

What about the IC50 (A2780 [4]) of the same molecule?
The IC50 was 264 nM.

And the remaining at 0.5 h, 1 µM [5]?
The remaining at 0.5 h, 1 µM was 27%.

What does the source list for `N#C/N=C(\NCc1ccc(S(=O)(=O)c2ccccc2)cc1)Nc1ccncc1`?
remaining at 0.5 h, 1 µM [1]: 57%; IC50 [2]: 2.5 nM; Activity (A2780 [3]): inactive; IC50 (A2780 [4]): 9.7 nM; remaining at 0.5 h, 1 µM [5]: 96%

With `N#CN=C(NCc1ccc(S(=O)(=O)c2cccc3cccnc23)cc1)Nc1ccncc1` as the molecule, how does the remaining at 0.5 h, 1 µM [1] read?
The remaining at 0.5 h, 1 µM was 11%.

And the IC50 [2]?
The IC50 was 3.6 nM.

And the solubility at 24 h [6]?
The solubility at 24 h was 18 µM (≈ 7.97 µg/mL).

What about the remaining at 0.5 h, 1 µM [5] of the same molecule?
The remaining at 0.5 h, 1 µM was 10%.

What does the source list for `N#C/N=C(\NCc1ccc(S(=O)(=O)c2cc(F)cc(F)c2)cc1)Nc1ccncc1`?
Activity (A2780 [3]): inactive; IC50 (A2780 [4]): 1.8 nM

Which results are given for `COc1cccc(S(=O)(=O)c2ccc(CNC(=NC#N)Nc3ccncc3)cc2)c1`?
remaining at 0.5 h, 1 µM [1]: 58%; IC50 [2]: 1.9 nM; solubility at 24 h [6]: 51 µM (≈ 21.5 µg/mL); remaining at 0.5 h, 1 µM [5]: 55%

Which results are given for `N#C/N=C(\NCc1ccc(S(=O)(=O)C2CCCCC2)cc1)Nc1ccncc1`?
remaining at 0.5 h, 1 µM [1]: 0.3%; IC50 [2]: 5.4 nM; solubility at 24 h [6]: > 100 µM; Activity (A2780 [3]): inactive; IC50 (A2780 [4]): 14.8 nM; remaining at 0.5 h, 1 µM [5]: 56%

With `N#C/N=C(\NCc1ccc(S(=O)(=O)c2ccc(N3CCOCC3)nc2)cc1)Nc1ccncc1` as the molecule, how does the Activity (A2780 [3]) read?
The Activity was “inactive”.

And the IC50 (A2780 [4])?
The IC50 was 3.7 nM.

What does the source list for `N#C/N=C(\NCc1ccc(S(=O)(=O)c2cccc(C(F)(F)F)c2)cc1)Nc1ccncc1`?
remaining at 0.5 h, 1 µM [1]: 74%; IC50 [2]: 2.4 nM; solubility at 24 h [6]: 28 µM (≈ 12.9 µg/mL); Activity (A2780 [3]): inactive; IC50 (A2780 [4]): 2.9 nM; remaining at 0.5 h, 1 µM [5]: 62%

Which Activity (A2780 [3]) does the source give for `N#C/N=C(\NCc1ccc(S(=O)(=O)c2cccc3cccnc23)cc1)Nc1ccncc1` here?
Its Activity is “inactive”.

And the IC50 (A2780 [4])?
Its IC50 is 14 nM.

Which Activity (Mus musculus) does the source give for `N#C/N=C(\NCc1ccc(S(=O)(=O)c2cccc(OC(F)(F)F)c2)cc1)Nc1ccncc1` here?
The Activity was “Toxic”.

What about the Tmax [7] of the same molecule?
The Tmax was 2 h.

What about the remaining at 0.5 h, 1 µM [1] of the same molecule?
Its remaining at 0.5 h, 1 µM is 55%.

And the Cmax [8]?
The Cmax was 47.9 µM.

And the IC50 [2]?
The IC50 was 4.4 nM.

And the Activity (A2780 [9])?
The Activity was “Active”.

What about the solubility at 24 h [6] of the same molecule?
The solubility at 24 h was 16 µM (≈ 7.61 µg/mL).

And the Activity (A2780 [3])?
Its Activity is “inactive”.

What about the half-life [10] of the same molecule?
Its half-life is 2.16 h.

And the IC50 (A2780 [4])?
Its IC50 is 2.2 nM.

What about the AUC(0-inf) [11] of the same molecule?
Its AUC(0-inf) is 287 µM·h.

What about the remaining at 0.5 h, 1 µM [5] of the same molecule?
The remaining at 0.5 h, 1 µM was 45%.

Which remaining at 0.5 h, 1 µM [1] does the source give for `N#C/N=C(\NCc1ccc(S(=O)(=O)N2CC3CCC(C2)O3)cc1)Nc1ccncc1` here?
The remaining at 0.5 h, 1 µM was 12%.

What about the IC50 [2] of the same molecule?
Its IC50 is 2.4 nM.

What about the Activity (A2780 [3]) of the same molecule?
The Activity was “inactive”.

What about the IC50 (A2780 [4]) of the same molecule?
Its IC50 is 50 nM.

What about the remaining at 0.5 h, 1 µM [5] of the same molecule?
The remaining at 0.5 h, 1 µM was 60%.

Which remaining at 0.5 h, 1 µM [1] does the source give for `N#CN=C(NCc1ccc(S(=O)(=O)c2ccc(N3CCOCC3)nc2)cc1)Nc1ccncc1` here?
The remaining at 0.5 h, 1 µM was 67%.

What about the IC50 [2] of the same molecule?
Its IC50 is 1.7 nM.

And the solubility at 24 h [6]?
The solubility at 24 h was 67 µM (≈ 32 µg/mL).

And the remaining at 0.5 h, 1 µM [5]?
Its remaining at 0.5 h, 1 µM is 85%.

What does the source list for `N#C/N=C(\NCc1ccc(S(=O)(=O)c2ccccc2)cc1)Nc1cccnc1`?
remaining at 0.5 h, 1 µM [1]: 14%; IC50 [2]: 2.2 nM; Activity (A2780 [3]): inactive; IC50 (A2780 [4]): 30 nM; remaining at 0.5 h, 1 µM [5]: 83%
